# Counter-ions that a name gives are not always drawn. The source made the active and inactive calls. No rule for the calls is given here.
# Experiment: Cytotoxicity activity against human HepG2 cells assessed by CellTiter-Glo luminescent cell viability assay.
# Assay type: toxicity, cell-based
# Design: assay stage confirmatory assay, source tissue liver
# Conditions: HepG2 cells, read-out: IC50 relative
row,Compound,CC50
1,CCCCN(CC)CCCNC(=O)c1cc2c(=O)n(C)c3ccccc3c2n1C,11.8 µM (active)
2,Cc1cc(Nc2ncc(Cl)c(Nc3ccccc3S(=O)(=O)C(C)C)n2)c(OC(C)C)cc1C1CCNCC1 [CERITINIB],0.7 µM (active)
3,COc1cccc(-c2noc(-c3ccc(N4CCN(C(C)C)CC4)nc3)n2)c1OC,13.1 µM (active)
4,Cn1c(CNC(=O)c2ccc3c(c2)n(C)c(=O)c2ccnn23)nc2ccccc21,16.4 µM (inactive)
5,O=C(NC1CCN(CCCCC2(C(=O)NCC(F)(F)F)c3ccccc3-c3ccccc32)CC1)c1ccccc1-c1ccc(C(F)(F)F)cc1 [LOMITAPIDE],1.4 µM (active)
6,CO[C@]1(C(=O)N[C@@H](C)c2ccc(-n3cc(F)cn3)nc2)CC[C@H](c2nc(C)cc(Nc3cc(C)[nH]n3)n2)CC1 [PRALSETINIB],9.3 µM (active)
7,Cc1ccc(-c2cc3c(=O)n(CC#N)ccn3n2)cc1,0.3 µM (active)
8,CCc1ccc(S(=O)(=O)N2CCN(c3ccc(C(C)=O)cc3)CC2)cc1,50 µM (inactive)
9,CC(=O)C1=C(c2ccc(Br)cc2)N(C(C)=O)n2c(C)nnc2S1,10.9 µM (active)
10,Cc1cc(NC(=O)N[C@H]2CCN(CC3CCCC3)C2)cc(N2CCN(C)CC2)c1,9.3 µM (active)
11,COc1ccc(C)cc1S(=O)(=O)N1CCCC(C(=O)N2CCN(c3ccccc3F)CC2)C1 (configuration not stated),9.9 µM (inactive)
12,C=CCn1c(=O)c2cnc(Nc3ccc(N4CCN(C)CC4)cc3)nc2n1-c1cccc(C(C)(C)O)n1 [ADAVOSERTIB],4.5 µM (active)
13,C[C@@H](NC1CCN(c2ccc(F)c(F)c2)CC1)[C@@H](O)c1ccc(O)cc1,14.6 µM (active)
14,CC(=O)c1ccc(NC(=O)c2cccc3cccnc23)cc1,0.9 µM (active)
15,Fc1ccc2[nH]c(CCNc3ncc(Cl)cn3)nc2c1,6.7 µM (active)
16,COc1ccc(C[C@H](NC(=O)[C@H](C)NC(=O)CN2CCOCC2)C(=O)N[C@@H](Cc2ccccc2)C(=O)[C@@]2(C)CO2)cc1,0.5 µM (active)
17,CC1=CCN(C[C@H](O)COc2ccc3c(c2)OCO3)CC1,13.5 µM (inactive)
18,CCc1nc(C)c([C@H](C)N(C)Cc2cccnc2N)s1,13.8 µM (active)
19,O=C(C1CCCC1)N1CC(Oc2ccc(-c3noc(C4CCOCC4)n3)cc2)C1,3.2 µM (active)
20,Cc1ccc(/N=c2\ssnc2Cl)nc1,16.4 µM (inactive)
21,COC(=O)[C@H]1[C@H]2C[C@@H]3c4[nH]c5cc(OC)ccc5c4CCN3C[C@H]2C[C@@H](OC(=O)c2cc(OC)c(OC)c(OC)c2)[C@@H]1OC [RESERPINE],11.8 µM (active)
22,COc1ccc(S(=O)(=O)N2CCN(C(=O)c3ccc(-c4ccc(C(C)=O)cc4)o3)CC2)cc1OC,8.5 µM (active)

row,Compound,CC50
1,CCc1cccc(NC(=O)N2CCN(c3ccnc(N4CCCC4)n3)CC2)c1,13.5 µM (inactive)
2,COCC(=O)Nc1ccc(Nc2nc(C)cc(N3CCCC3)n2)cc1,3.6 µM (active)
3,CC(C)n1c(/C=C/[C@@H](O)C[C@@H](O)CC(=O)O)c(-c2ccc(F)cc2)c2ccccc21 [LESCOL],7.4 µM (active)
4,CC[N+](CC)=c1ccc2nc3c(cc(N)c4ccccc43)oc-2c1 [NILE BLUE HYDROCHLORIDE],2 µM (active)
5,O=C(CCN1CCC(c2ccccc2)C1)c1ccc2c(c1)OCCO2 (configuration not stated) [PROROXAN HYDROCHLORIDE],8.4 µM (active)
6,Cc1cc(OCC(=O)Nc2nc(-c3ccccn3)cs2)no1,8.8 µM (active)
7,C[C@@H](NCCCc1cccc(C(F)(F)F)c1)c1cccc2ccccc12 [CINACALCET HYDROCHLORIDE],5.1 µM (active)
8,CC(C)(C)Cn1c(N)nc2ccc(-c3[nH]c(C(C)(C)C)nc3-c3ccc(F)cc3)nc21 [RALIMETINIB MESYLATE],13.2 µM (active)
9,Cc1ccc(-c2cc3c(=O)n(Cc4noc(CN5CCN(C)CC5)n4)ccn3n2)cc1,9.4 µM (active)
10,NCCCCNS(=O)(=O)c1ccc2c(Cl)cccc2c1,13 µM (active)
11,Cc1cc(C)cc(OCCN(C)[C@@H](C)c2nc(N)nc(N(C)C)n2)c1,9 µM (active)
12,Cc1ccc(-c2cnn3c(N4CCN(CCO)CC4)cc(C)nc23)cc1,8.9 µM (active)
13,CON(C)C(=O)CSc1nc2sc(C)c(C)c2c(=O)n1Cc1ccccn1,0.6 µM (active)
14,CCc1ccc(-c2cc(C(=O)N3C[C@H]4CC[C@@H]3CN(C)C4)[nH]n2)cc1,13.9 µM (inactive)
15,CCc1cc2c(cc1N1CCC(N3CCOCC3)CC1)C(C)(C)c1[nH]c3cc(C#N)ccc3c1C2=O [ALECTINIB],18.9 µM (inactive)
16,CNC(=O)c1ccccc1Nc1cc(Nc2ccc(N3CCOCC3)cc2OC)ncc1C(F)(F)F [VS-4718],3.7 µM (active)
17,CC1(C)C2CC=C(CN(CCN3CCNCC3)C(=O)c3ccccc3Cl)C1C2 (configuration not stated),14.3 µM (inactive)
18,COC[C@H]1OC(=O)c2coc3c2[C@@]1(C)C1=C(C3=O)[C@@H]2CCC(=O)[C@@]2(C)C[C@H]1OC(C)=O [WORTMANNIN],7.4 µM (active)
19,CC1=C(c2ccccc2)C1C(=O)NC1(C(N)=O)CCCCC1 (configuration not stated),14.7 µM (active)
20,COc1cccc(Cn2c(=O)c3ccnn3c3ccc(C(=O)NCCN(C)C)cc32)c1,12.3 µM (active)
21,Nc1ccccc1NC(=O)CCCCCC(=O)Nc1ccccc1,11.7 µM (active)
22,CC(C)c1ccc(CNCCN2CCCCC2CO)cc1 (configuration not stated),4.3 µM (active)

row,Compound,CC50
1,O=C1c2c(O)ccc(O)c2C(=O)c2c(NCCNCCO)ccc(NCCNCCO)c21 [MITOXANTRONE],0.8 µM (active)
2,CC(=O)N1c2ccc(S(=O)(=O)N3CCC(C(=O)N4CC=C(c5ccccc5)CC4)CC3)cc2CC1C (configuration not stated),6.8 µM (active)
3,O=C1Nc2ccccc2C2(CCN(CCc3ccc(C(F)(F)F)cc3)CC2)O1,10.7 µM (active)
4,CC(C)(C)Cc1cc(NC(=O)[C@@H]2CCCN2C(=O)c2ccc3c(c2)OCO3)[nH]n1,0.8 µM (active)
5,COc1cc(C[C@H]2C(=O)OC[C@@H]2Cc2ccc(OC)c(OC)c2)ccc1O [ARCTIGENIN],2.6 µM (active)
6,Cc1cc(C(=O)Nc2ccccn2)c2ccccc2n1,2.1 µM (active)
7,Cc1ccc(NC(=O)c2ccc(CN3CCN(C)CC3)cc2)cc1Nc1nc(-c2cccnc2)cs1 [MASITINIB],3.5 µM (active)
8,Cc1c(CN2CCN(C(=O)[C@H](C)O)CC2)sc2c(N3CCOCC3)nc(-c3cnc(N)nc3)nc12 [APITOLISIB],1.5 µM (active)
9,CN1CCC2(CC1)CN(S(=O)(=O)c1ccc(Cl)s1)Cc1ccccc1O2,9.7 µM (active)
10,CCC(=O)Nc1cccc(Oc2nc(Nc3ccc(N4CCN(C)CC4)cc3OC)ncc2Cl)c1,2.8 µM (active)
11,Cc1nc[nH]c1CNCCCc1ccc(C(C)C)cc1,13.6 µM (inactive)
12,C[C@H]1COC2=C1C(=O)C(=O)c1c2ccc2c1CCCC2(C)C [CRYPTOTANSHINONE],3.1 µM (active)
13,CCCS(=O)(=O)N1CCc2ccc(NC(=O)Nc3cccc(C#N)c3)cc21,10.2 µM (active)
14,CCOC(=O)C(C)Oc1cccc2c(=O)n(CC(=O)Nc3ccc4c(c3)OCCO4)ccc12 (configuration not stated),50 µM (inactive)
15,Cc1ccc(-n2nc(C(C)(C)C)cc2NC(=O)NCc2cc(F)ccc2Oc2ccc3c(cnn3CCO)c2)cc1 [PEXMETINIB],2.4 µM (active)
16,CCN(CC)c1cc(C)nc(Nc2ccc(NC(=O)C3CCCO3)cc2)n1 (configuration not stated),11.3 µM (active)
17,C=CCNC1=C2C[C@@H](C)C[C@H](OC)[C@H](O)[C@@H](C)/C=C(/C)[C@H](OC(N)=O)[C@@H](OC)/C=C\C=C(\C)C(=O)NC(=CC1=O)C2=O,< 0.1 µM (active)
18,CC(C)[C@H](NC1CCN(C(=O)c2ccco2)CC1)c1ccccc1,10.6 µM (inactive)
19,CCOCc1ccc(O)c2ncccc12,5.6 µM (active)
20,CCOC(=O)c1cnc2ccc(-c3cncc(NS(=O)(=O)c4ccccc4)c3)cn12,3.8 µM (active)
21,COc1cc(-c2cc(C)no2)ccc1S(=O)(=O)Nc1cc(OC)c(OC)c(OC)c1,4.5 µM (active)
22,CCn1cc(CC(=O)Nc2ccc(Oc3ccccc3)cn2)cn1,5.3 µM (active)

row,Compound,CC50
1,CCOC(=O)N1CCC(CN(Cc2ccc(Cl)cc2)Cc2ccc([N+](=O)[O-])s2)C1 (configuration not stated) [SR9009],24.4 µM (inactive)
2,COc1ccc2nc(NC(=O)CN3C(=O)c4ccccc4S3(=O)=O)sc2c1,14.8 µM (inactive)
3,O=C(Nc1ccnc2ccnn12)c1cc2ccccc2c(=O)[nH]1,0.1 µM (active)
4,O=C(CCCCCCNC(=O)c1cnc(N(c2ccccc2)c2ccccc2Cl)nc1)NO [CITARINOSTAT],3 µM (active)
5,Cc1ccc2c(NS(=O)(=O)c3ccccc3Cl)cccc2c1Oc1ncccc1-c1ccnc(N[C@H]2CCCNC2)n1,5.2 µM (active)
6,CN(C)CCCN1c2ccccc2Sc2ccc(Cl)cc21 [CHLORPROMAZINE HYDROCHLORIDE],5.4 µM (active)
7,COC[C@H](C)Nc1cccc(N(C)C(C)C)c1,8.6 µM (active)
8,COC1(C(=O)N2CCO[C@H](c3ccccc3C)C2)CS(=O)(=O)C1,8.6 µM (active)
9,Clc1cccc(N2CCN(C[C@H]3CCC4(CNC4)O3)CC2)c1,7 µM (active)
10,OCCOCCNCc1ccc(-c2cc(Cl)cc(Cl)c2)o1,11.7 µM (active)
11,COc1cc(Nc2cnc(C#N)c(O[C@H](C)CN(C)C)n2)ncc1-c1cnn(C)c1,10.4 µM (active)
12,O=C(CCCCCCNC(=O)c1cnc(N(c2ccccc2)c2ccccc2)nc1)NO [RICOLINOSTAT],3.5 µM (active)
13,Cc1nn(-c2cccc(Cl)c2)nc1C(=O)NC1CCN(C)CC1,9.4 µM (active)
14,CCC1(N(C)C)CCN(c2nc(N)c3cc(OC)c(OC)cc3n2)CC1,11.2 µM (active)
15,CCN(CC)CCNC(=O)C1CCCN(c2ncc(-c3ccc(C)cc3)cn2)C1 (configuration not stated),4.3 µM (active)
16,CC1(C)N=C(N)N=C(N)N1c1ccc(Br)cc1,9.1 µM (inactive)
17,CCCCc1cc(=O)oc2c(C)c(OCC(=O)NCCN(C)C)ccc12,13 µM (inactive)
18,c1coc(CNc2ncnc3ccccc23)c1,9.5 µM (inactive)
19,CNC(=O)c1nnn(-c2ccc3ncccc3c2)c1C,2.2 µM (active)
20,Nc1nc(N)c2nc(CNc3ccc(C(=O)N[C@@H](CCC(=O)O)C(=O)O)cc3)cnc2n1 [AMINOPTERIN],0.1 µM (active)
21,COc1ccc(Nc2nccc(-c3cccnc3)n2)cc1,9.9 µM (active)
